Consider 5 compounds from patent US7687497B2, “C10-substituted camptothecin analogs” (priority 2007, dated 2010).

Data set [1] concerns A2780/WT (wild-type) cells. Nature of the data set: Sulforhodamine B (SRB) cytotoxicity assay in A2780/WT cells. Conditions: Homo sapiens, A2780, read-out: A2780/WT (nM). Format: cell-based. As for the experimental part:
(§1) Each of the testing conditions used in this study in both A2780/WT (wild-type) and A2780/DX5 cells were repeated in five to fifteen experiments that were performed on separate days. Each experiment consisted of one microtiter plate with at least eight individual assays of a given drug treatment condition on the plate. The sulforhodamine B (SRB) assay was used to assess cytotoxicity and absorbance at 570 nm (A570) in order to calculate the percentage of cell control (or percent cell survival) for the various treatment conditions in the plate wells.
Roswell Park Memorial Institute (RPMI 1640) medium, fetal bovine serum (FBS), and L-glutamine were purchased from Gibco BRL. […]
Cells were manipulated in a Class IIA/B3 Biological Safety Cabinet (Forma Scientific) and maintained at 37° C. in a humidified atmosphere containing 5% CO2 in a water-jacketed cell culture incubator (Forma Scientific). Cells were counted using a Coulter-Z1 counter (Beckman-Coulter). […] Percentage of control was correlated to A570 values and determined using a Model EL800 plate reader (Bio-Tek Instruments).
Population doubling times for the two cell lines used in this study encompassed a total of five cell doublings corresponding to approximately 5 days for A2780/WT and A2780/DX5 cells. […] Prior to SRB assays, cell viability was monitored by evaluation of microtiter plate wells. […]
In general terms: Sulforhodamine B stains cellular protein and so reports cell mass.

In data set [2] the test system is A2780/DX5 cells. The data set is described as follows: Sulforhodamine B (SRB) cytotoxicity assay in A2780/DX5 cells. It counts as cell-based. The note with it: for IC50 Ratio: A2780/DX5 versus A2780/WT; for IC50: Homo sapiens, A2780, read-out: A2780/DX5 (nM). Here is the method: as §1
Roswell Park Memorial Institute (RPMI 1640) medium, fetal bovine serum (FBS), and L-glutamine were purchased from Gibco BRL. Drugs were dissolved in sterile dimethylsulfoxide (DMSO), from American Type Culture Collection (ATCC) for stock solutions (2.5 to 5.0 mM). Subsequent dilutions were made using cell culture medium (prior to adding the drug to cells). SRB was purchased from Sigma and dissolved in 1.0% acetic acid. Trichloroacetic acid was purchased from VWR International.
Cells were manipulated in a Class IIA/B3 Biological Safety Cabinet (Forma Scientific) and maintained at 37° C. in a humidified atmosphere containing 5% CO2 in a water-jacketed cell culture incubator (Forma Scientific). Cells were counted using a Coulter-Z1 counter (Beckman-Coulter). Following drug treatment, plates were washed using a Biomek 2000 station (Beckman) and, following exposure to SRB dye, plates were washed using an automated plate washer (Model EL404, Bio-Tek Instruments). Percentage of control was correlated to A570 values and determined using a Model EL800 plate reader (Bio-Tek Instruments).
Population doubling times for the two cell lines used in this study encompassed a total of five cell doublings corresponding to approximately 5 days for A2780/WT and A2780/DX5 cells. A2780/WT and A2780/DX5 cells were cultured in RPMI 1640 medium supplemented with 10% fetal bovine serum and 1 mM of L-glutamine. Both cell lines were maintained as monolayered cultures in T-25 or T-75 flasks and then seeded to microtiter plate wells for experiments described herein. Prior to SRB assays, cell viability was monitored by evaluation of microtiter plate wells. […]
The sulforhodamine B (SRB) cytotoxicity assay (see, Skehan P, et al., New colorimetric cytotoxicity assay for anticancer-drug screening. J. Natl. Cancer Inst. 82:1107-1112 (1990)) was used to determine the cytotoxic effects of BNP1350, SN-38, topotecan, 9-NH2-CPT, and 9-NO2-CPT on cell growth in vitro. […] Plates were agitated (gently) for 5 minutes and the absorbance values of the SRB dye-protein adduct at a 570 nm wavelength (A570) were determined using an automated microtiter plate reader equipped with an A570 filter (Model EL800, BioTek Instruments).

The conditions of data set [3]: clinical studies in Japan alone; cited from earlier work.
Data set [4] relates to human cancer cell lines. Nature of the data set: In vitro studies on a panel of over 20 human cancer cell lines. Format: cell-based.
The test system of data set [5] is advanced malignant melanoma. The note with it: fifteen patients, 90-360 mg/m^2 repeated every 2 weeks; cited from earlier work.
The conditions of data set [6]: cited from earlier work.
The conditions of data set [7]: cited from earlier work. The source holds these as a separate data set.
Data set [8] deals with advanced gastrointestinal cancer. The note with it: cited from earlier work.
[9] abbreviates: 5-day course 15 mg/m^2 × 5, 9 patients treated.
[10] abbreviates: 5-day course 17 mg/m^2 × 5, 5 patients treated.
[11] abbreviates: 5-day course 20 mg/m^2 × 5, 10 patients treated.
Setting [12] is: single dose 110 mg/m^2, 2 patients treated.
The mark [13] stands for this setting: single dose 120 mg/m^2, 7 patients treated.
[14] abbreviates: single dose 180 mg/m^2, 9 patients treated.
[15] abbreviates: 5-day course (27 patients total), 4 wks.
Setting [16] is: 5-day course (27 patients total), 8 wks.
Setting [17] is: 5-day course (27 patients total), 12 wks.
Where [18] appears, read: single-dose method (34 patients total), 3 wks.
Setting [19] is: single-dose method (34 patients total), 6 wks.
Where [20] appears, read: single-dose method (34 patients total), 9 wks.
The mark [21] stands for this setting: single-dose method (34 patients total), 12 wks.

Where two headings read alike, the source gives them in different places.

Take `CC[C@@]1(O)C(=O)OCc2c1cc1n(c2=O)Cc2c-1nc1ccc(OC(=O)N3CCOCC3)cc1c2CC[Si](C)(C)C` [Compound 12, 7-(2′-Trimethylsilanyl)ethyl-10-(4-morpholinecarbonyloxy) camptothecin]: the IC50 was found to be 65.6 nM in data set [1] and 135 nM in data set [2]. Besides, the “IC50 Ratio” value in data set [2] amounted to 2.1.
Consider `CCc1c2c(nc3ccc(OC(=O)N4CCC(N5CCCCC5)CC4)cc13)-c1cc3c(c(=O)n1C2)COC(=O)[C@]3(O)CC` [CPT-11, 7-ethyl-10-[4-(1-piperidino)-1-piperidino]carbonyloxy camptothecin], for which the “patient deaths directly attributable to drug toxicity” value in data set [3] is recorded as “approximately 100 patient deaths”.
Turning to `CC[C@@]1(O)C(=O)OCc2c1cc1n(c2=O)Cc2c-1nc1ccccc1c2CC[Si](C)(C)C` [Karenitecin (BNP1350), (4S)-4-ethyl-4-hydroxy-11-[2-(trimethylsilyl)ethyl]-1H-pyrano[3′:4′:6,7]indolizino[1,2-b]quinoline-3,14(4H,12H)-dione], in data set [4], the “antitumor potency compared with Topotecan or SN-38” value is reported as “significantly more potent”.
On to `CCOC(=O)COc1ccc2nc3c(c(CC[Si](C)(C)C)c2c1)Cn1c-3cc2c(c1=O)COC(=O)[C@]2(O)CC` [Compound 9, 7-(2′-Trimethylsilanyl)ethyl-10-(ethoxycarbonylmethoxy) camptothecin], for which the IC50 in data set [1] stood at 73.9 nM. In data set [2], the “IC50 Ratio” value turned out to be 1.7 and the IC50 turned out to be 123 nM.
On to `CC[C@@]1(O)C(=O)OCc2c1cc1n(c2=O)Cc2cc3ccccc3nc2-1` [CPT sodium], for which the “less pronounced transient tumor regression” value in data set [5] is “three”. The “No. of patients with cystitis” value in data set [6] (5-day course 11 mg/m^2 × 5, 2 patients treated) is 1 patients; in data set [6] (setting [9]) it was 4 patients; in data set [6] (setting [10]) it was 2 patients; in data set [6] (setting [11]), 6 patients. Besides, the “No. of patients with diarrhea” value in data set [6] (setting [9]) was 1 patients; in data set [6] (setting [10]) it was 4 patients; in data set [6] (setting [11]), 4 patients; in data set [6] (5-day course 22 mg/m^2 × 5, 1 patient treated), 1 patients. Also, the “Cystitis, 5-Day Course (% of 27 Patients)” value in data set [6] (5-day course) is 48 (P < 0.05) %. Also, the “Number of patients with cystitis” value in data set [6] (single dose 100 mg/m^2, 6 patients treated) is reported as 2 patients; in data set [6] (setting [12]), 1 patients; in data set [6] (setting [13]), 2 patients; in data set [6] (setting [14]), 3 patients. Moreover, the results for the “Number of patients with diarrhea” value in data set [6] (setting [12]), in data set [6] (setting [13]) and in data set [6] (setting [14]) were 1 patients, 4 patients and 2 patients, respectively. In data set [6] (single dose method), the “Cystitis, Single Dose (% of 34 Patients)” value was 24%. The “bladder toxicity dose limiting” value in data set [7] (doses of 20 to 30 mg/m^2) is reported as “three”. Moreover, in data set [7] (doses of 30 and 44 mg/m^2), the “bladder toxicity, additional patients” value is “two”. The “Objective results: Improved” value in data set [8] (setting [15]) is 1 patients; in data set [8] (setting [18]) it was 4 patients; in data set [8] (setting [19]), 2 patients; in data set [8] (setting [20]), 2 patients. In addition, the “Objective results: Stable” value in data set [8] (setting [15]) is 12 patients; in data set [8] (setting [16]), 7 patients; in data set [8] (setting [17]), 6 patients; in data set [8] (setting [18]) it was 17 patients; in data set [8] (setting [19]), 11 patients; in data set [8] (setting [20]), 8 patients. In addition, the “Objective results: Stable” value in data set [8] (setting [21]) is given as 6 patients. Further, the “Objective results: Worse” value in data set [8] (setting [15]) is recorded as 14 patients; in data set [8] (setting [16]), 20 patients; in data set [8] (setting [17]), 21 patients; in data set [8] (setting [18]), 13 patients; in data set [8] (setting [19]), 21 patients; in data set [8] (setting [20]) it was 24 patients. Besides, in data set [8] (setting [21]), the “Objective results: Worse” value is reported as 28 patients. Also, in data set [8] (after 2 months (8 or 9 weeks), of 61 patients), the “patients with evidence of partial objective improvement” value is recorded as “two”. Further, the “patients who showed improvement” value in data set [8] (at 3 months, of 61 patients) is “none”.
